Results as given in US8124412B2, “Method of culturing conifer somatic embryos using S(+)-abscisic acid” (Cellfor Inc., priority 2005, dated 2012).

Key:
[1] = tested on: loblolly pine somatic embryos, line 76; experiment: Loblolly pine: S-ABA concentration in preculture II medium and maturation medium; format: cell-based, Pinus taeda (loblolly pine); conditions: S-ABA 95% purity, line 76 (FIG. 6)
Procedure: The effect of S-ABA (95% purity) was tested in the loblolly pine pre-culture II medium followed by maturation medium. Somatic embryos of line 76 were cultured as described above; however, ABA was added to the pre-culture medium and maturation medium in the following treatments: […]

[2] = tested on: Douglas fir somatic embryos; experiment: Douglas fir somatic embryogenesis: maturation, germination and conversion after culture on S-ABA or S,R-ABA; format: cell-based, Pseudotsuga menziesii (Douglas fir)
Procedure: The culture medium used for Douglas fir was TX medium (see Table 1) with the following additives: glutamine 100 mg/L, casein hydrolysate 100 mg/L, and pH 5.8. The following compounds were added into the basal medium for Douglas fir somatic embryo development at different stages:
1) Solid maintenance medium: 9 μM 2,4-D and 4.5 μM BA, gellan gum 0.28%, sucrose 1%.
2) Liquid maintenance and bulking-up medium: 9 μM 2,4-D and 4.5 μM BA, different carbon sources for experiments.
3) Liquid pre-treatment medium: 20 (first week) or 30 μM ABA (second week), 10% PEG4000 (first week) or PEG1500 (second week), different carbon sources as described in examples below.
4) Solid maturation medium consisted of three media all with 0.02% NH4NO3 and the following:
Medium I. 40 μM ABA, 10% PEG 1500, maltose 2.5%, gellan gum 0.6%
Medium II. 60 μM ABA, 10% PEG1500, maltose 2.5% and sucrose 1%, gellan gum 0.8%
Medium III. 70 μM ABA, 6% PEG1500, sucrose 6%, gellan gum 1%.
The culture was kept in darkness at 23° C. Embryogenic tissue was sub-cultured once every two weeks onto solid maintenance medium. […]
5) Germination. The cultures were germinated at room temperature for 2 to 3 weeks on TX medium (Table 1), 0.5% gellan gum, 1 g/L NH4NO3 after which the germinants were hand selected and placed in low-light for 1 week and high-light for 7 weeks then planted in miniplugs and evaluated after 14 weeks.

[3] = tested on: loblolly pine germinants/seedlings, line 76; experiment: Loblolly pine merchantable miniplug seedlings in nursery after maturation treatments; format: in vivo, Pinus taeda (loblolly pine); conditions: line 76 (FIG. 5)
Procedure: The effect of the different kinds of ABA on the survival and vigour of germinants was investigated. The germinants were prepared as described above except that ABA in the maturation medium consisted of 95% and 98% purity S-ABA, which was used in the maturation medium at 60 and 120 μM concentration. The S,R-ABA (98% purity) was used at 60 and 120 μM concentration. Miniplug seedlings of merchantable quality were scored after 14 weeks in the nursery.

[4] = tested on: loblolly pine somatic embryos, line 76; experiment: Loblolly pine somatic embryo maturation: plantable germinants per gram of tissue plated; format: cell-based, Pinus taeda (loblolly pine)
Procedure: The culture medium for loblolly pine was TX medium (see Table 1) with the following additives: Glutamine 2500 mg/L, casein hydrolysate 3000 mg/L, and pH 5.8. The following compounds were added into the basal medium for loblolly pine somatic embryo development at different stages:
1) Solid maintenance medium: 9 μM 2,4-D and 4.5 μM BA, gellan gum 0.3%, sucrose 1%, lactose 2%.
2) Liquid maintenance and bulking-up medium: 9 μM 2,4-D and 4.5 μM BA, 1% sucrose, 2% lactose.
3) Liquid pre-treatment medium: 1% sucrose, 2% lactose.
4) Preculture II medium. Lactose 2%, 1% sucrose
5) Solid maturation containing 1% gellan gum, and 2500 mg/L L-glutamine and 3000 mg/L casein hydrolysate, 3% sucrose. The maturation media contained different types of ABA and concentrations. S,R-ABA (98% purity) was tested at the previously determined optimum of 120 μM. S-ABA (90% purity) was tested at 60 μM and 120 μM. 0.3 grams of tissue were plated per petri-plate). Culture was for 18 weeks in the dark at room temperature. After, the embryos were desiccated for 1.5 hours in a stream of sterile air to a moisture content of less than 10%. Plates were stored at −28° C.
6) Germination. The filter papers with desiccated embryos attached were moved onto germination medium shown in Table 2, and cultured in the dark for 1 week then transferred to light. The numbers of germinants of suitable quality for planting were counted.

| SMILES | gradual increase in S-ABA compared to constant ABA throughout development ([1]; 45 μM S-ABA in pre-culture medium to 90 μM in maturation medium) | 90 μM S-ABA maturation medium compared to 120 μM S-ABA maturation medium [1] | effect on maturation frequencies ([2]; Douglas fir, S-ABA compared with S,R-ABA) | conversion of embryos, increase compared to S,R-ABA ([2]; one Douglas fir cell line with low conversion potential, embryos cultured on S-ABA vs S,R-ABA (FIG. 3)) [fold] | mean % merchantable seedlings, rank among treatments ([3]; 60 μM 98% purity S-ABA, after 14 weeks in nursery) | merchantable seedlings, compared to the 60 μM S,R-ABA treatment ([3]; 120 μM S-ABA, after 14 weeks in nursery) | mean % merchantable seedlings, compared to the S,R-ABA treatments ([3]; all S-ABA treatments (95% and 98% purity, 60 and 120 μM), scored after 14 weeks in nursery) | number of plantable germinants per gram of tissue plated, compared to 120 μM S,R-ABA ([4]; 60 μM S-ABA (90% purity) in maturation medium, loblolly line 76 (FIG. 4)) | number of plantable germinants, compared to 120 μM S,R-ABA ([4]; 120 μM S-ABA (90% purity) in maturation medium, loblolly line 76 (FIG. 4)) | optimum concentration in maturation medium ([4]; loblolly pine, S,R-ABA 98% purity, previously determined) [µM] |
| --- | --- | --- | --- | --- | --- | --- | --- | --- | --- | --- |
| CC1=CC(=O)CC(C)(C)[C@@]1(O)/C=C/C(C)=C\C(=O)O (mixture of isomers) [S-ABA, (+)-cis,trans-Abscisic Acid] | superior | superior | similar | 2.5 | significantly the is highest | more optimal | higher | significantly higher | double |  |
| CC1=CC(=O)CC(C)(C)C1(O)/C=C/C(C)=C\C(=O)O (stereo not shown) [S,R-ABA, reference compound] |  |  |  |  |  |  |  |  |  | 120 |
